What was measured:
CYP1A2 = CYP1A2 (Homo sapiens (Human), UniProt P05177); assay: CYP inhibition in pooled human liver microsomes; type: in vitro ADME
Method: (§1) CYP inhibition: Co-incubation of compounds with P450 enzyme-selective substrates was performed using pooled human liver microsomes (Cat. No. H0610, Xenotech), to determine their potential to cause drug-drug interactions. The assay was performed in duplicate. The formation of acetaminophen, 7′-hydoxycoumarin, hydrobupropion, N-desethylamodiaquine, 4′-hydroxydiclofenac, 4′-hydroxymephenytoin, 1′-hydroxybufuralol, 6″-hydroxychlorzoxazone were quantified as markers for CYP1A2, CYP2A6, […], CYP2C8, CYP2C9, CYP2C19, […], CYP2E1, respectively. CYP3A4 inhibition was measured using 2 substrates, measuring the formation of […] (3A4-T), and 1′-hydroxymidazolam (3A4-M). The incubation was carried out in 96 deep well plates each well containing: 179 μL of the master solution (0.2 mg/mL microsomes plus CYP substrate (see below for final substrate concentration and incubation time for the different CYP assays)) in 100 mM phosphate buffer and 1 μL of the compound working solution or vehicle. The final concentrations of the compounds in the assay was 30 μM when using a single dose or 0.1, 0.3, 1, 3, 10 and 30 μM for a dose response.
The incubation plate was placed into a water bath and pre-warmed at 37° C. for 5 minutes before the reactions were started by the addition of 20 μL of 10 mM NADPH solution and incubated at 37° C. for the time listed above. […]

CYP3A4 = CYP3A4 (Homo sapiens (Human), UniProt P08684); assay: biochemical; type: in vitro ADME
Method: as §1
(§2) The incubation plate was placed into a water bath and pre-warmed at 37° C. for 5 minutes before the reactions were started by the addition of 20 μL of 10 mM NADPH solution and incubated at 37° C. for the time listed above. The reaction was stopped by addition of 1.5 volumes (300 μL) of cold ACN containing 3% formic acid and 200 nM tolbutamide, 200 nM aprozolam and 200 nM labalol. The plate was centrifuged at 3,220 g for 50 minutes and then 200 μL of the supernatant was transferred to the analysis plate for LC/MS/MS analysis. The respective metabolite formation from each probe substrate was compared with that observed for the solvent control incubations.

CYP2C9 = CYP2C9 (Homo sapiens (Human), UniProt P11712); assay: biochemical; type: in vitro ADME
Method: as §1, §2

CYP2C19 = CYP2C19 (Homo sapiens (Human), UniProt P33261); assay: biochemical; type: in vitro ADME
Method: as §1, §2

CYP2E1 = CYP2E1 (Homo sapiens (Human), UniProt P05181); assay: biochemical; type: in vitro ADME
Method: as §1, §2

CYP2B6 = CYP2B6 (Homo sapiens (Human), UniProt P20813); assay: biochemical; type: in vitro ADME
Method: as §1, §2

CYP2D6 = CYP2D6 (Homo sapiens (Human), UniProt P10635); assay: biochemical; type: in vitro ADME
Method: as §1, §2

CYP2A6 = CYP2A6 (Homo sapiens (Human), UniProt P11509); assay: biochemical; type: in vitro ADME
Method: as §1, §2

CYP2C8 = CYP2C8 (Homo sapiens (Human), UniProt P10632); assay: biochemical; type: in vitro ADME
Method: as §1, §2

[1] = cytotoxicity in mock-infected A549 cells (MTS); type: cell-based; settings: human
Method: The lung cancer epithelial cell line A549 was obtained from the American Type Culture Collection (ATCC; Rockville, MD, USA) and cultured in MEM medium (Gibco BRL, Gaithersburg, MD, USA) with 10% fetal calf serum (FCS; Gibco BRL), 2 mM L-glutamine (Gibco BRL) and 0.075% sodium bicarbonate (Gibco BRL).
The anti-ZIKV and anti-DENV-2 activity in A549 cells was determined using a tetrazolium-based colorimetric cytopathic effect (CPE) reduction assay. […] A549 cells (1.5×10^4 cells in 100 μL cell culture medium) were seeded in 96-well flat bottom plates (TPP, Trasadingen, Switzerland) and incubated overnight to allow the cells to grow to confluency. Drug dilutions were prepared in culture medium where FCS concentration was decreased to 2% and threefold diluted in the plates (in duplicate). […] Three hours after MTS incubation, virus was inactivated using 0.5% Triton X-100 (Thermo Fisher Scientific, Waltham, MA, USA) and the absorbance was then recorded at 490 nm with a 96-well plate reader and compared with four cell control replicates (cells without virus and drugs) and four virus control wells (cells with virus but without drug). […] Absorbance was recorded using the VersaMax ELISA™ microplate reader (Molecular Devices) and analyzed with the Softmax Pro® software (Molecular Devices, Version 4.0). […]

Sequence of CYP3A4 (P08684 whole entry): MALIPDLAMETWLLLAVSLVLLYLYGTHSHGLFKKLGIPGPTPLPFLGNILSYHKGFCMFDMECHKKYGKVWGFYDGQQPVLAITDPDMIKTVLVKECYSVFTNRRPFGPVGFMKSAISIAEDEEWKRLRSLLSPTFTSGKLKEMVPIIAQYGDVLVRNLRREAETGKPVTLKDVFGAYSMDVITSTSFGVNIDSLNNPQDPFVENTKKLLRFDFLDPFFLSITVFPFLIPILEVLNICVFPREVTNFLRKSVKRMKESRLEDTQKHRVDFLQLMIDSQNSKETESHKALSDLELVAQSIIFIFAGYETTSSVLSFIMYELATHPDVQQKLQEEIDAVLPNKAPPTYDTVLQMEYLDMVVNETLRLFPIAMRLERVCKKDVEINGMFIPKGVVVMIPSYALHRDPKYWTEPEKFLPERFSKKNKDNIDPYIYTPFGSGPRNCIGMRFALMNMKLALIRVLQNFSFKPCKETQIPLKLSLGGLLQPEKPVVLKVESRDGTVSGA
Sequence of CYP2C19 (P33261 whole entry): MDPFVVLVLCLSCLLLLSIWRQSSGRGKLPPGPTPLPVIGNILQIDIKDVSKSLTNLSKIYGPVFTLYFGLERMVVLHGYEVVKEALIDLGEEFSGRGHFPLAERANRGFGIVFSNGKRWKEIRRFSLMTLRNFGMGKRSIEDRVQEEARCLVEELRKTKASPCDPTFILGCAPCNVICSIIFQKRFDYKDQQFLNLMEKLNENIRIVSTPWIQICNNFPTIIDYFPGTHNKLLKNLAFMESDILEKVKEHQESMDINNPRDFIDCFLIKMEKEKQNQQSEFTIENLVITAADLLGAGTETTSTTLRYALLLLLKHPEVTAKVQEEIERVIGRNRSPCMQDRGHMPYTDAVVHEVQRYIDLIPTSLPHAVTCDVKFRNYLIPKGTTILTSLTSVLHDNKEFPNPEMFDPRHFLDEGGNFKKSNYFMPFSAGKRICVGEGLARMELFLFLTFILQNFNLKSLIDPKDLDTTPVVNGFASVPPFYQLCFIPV
Sequence of CYP2C8 (P10632 whole entry): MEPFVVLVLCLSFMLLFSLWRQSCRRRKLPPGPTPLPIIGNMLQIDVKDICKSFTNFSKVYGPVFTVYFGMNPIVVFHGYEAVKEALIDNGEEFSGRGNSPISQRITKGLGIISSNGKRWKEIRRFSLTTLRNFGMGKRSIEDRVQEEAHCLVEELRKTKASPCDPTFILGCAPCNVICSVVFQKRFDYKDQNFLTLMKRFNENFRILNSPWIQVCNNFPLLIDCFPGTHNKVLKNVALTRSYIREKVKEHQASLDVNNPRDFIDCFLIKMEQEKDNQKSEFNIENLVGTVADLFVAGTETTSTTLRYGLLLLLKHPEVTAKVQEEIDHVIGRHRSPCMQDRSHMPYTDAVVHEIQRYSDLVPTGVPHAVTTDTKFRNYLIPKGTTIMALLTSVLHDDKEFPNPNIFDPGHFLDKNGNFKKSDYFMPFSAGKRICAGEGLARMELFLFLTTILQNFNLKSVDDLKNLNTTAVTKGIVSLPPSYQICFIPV
Sequence of CYP2B6 (P20813 whole entry): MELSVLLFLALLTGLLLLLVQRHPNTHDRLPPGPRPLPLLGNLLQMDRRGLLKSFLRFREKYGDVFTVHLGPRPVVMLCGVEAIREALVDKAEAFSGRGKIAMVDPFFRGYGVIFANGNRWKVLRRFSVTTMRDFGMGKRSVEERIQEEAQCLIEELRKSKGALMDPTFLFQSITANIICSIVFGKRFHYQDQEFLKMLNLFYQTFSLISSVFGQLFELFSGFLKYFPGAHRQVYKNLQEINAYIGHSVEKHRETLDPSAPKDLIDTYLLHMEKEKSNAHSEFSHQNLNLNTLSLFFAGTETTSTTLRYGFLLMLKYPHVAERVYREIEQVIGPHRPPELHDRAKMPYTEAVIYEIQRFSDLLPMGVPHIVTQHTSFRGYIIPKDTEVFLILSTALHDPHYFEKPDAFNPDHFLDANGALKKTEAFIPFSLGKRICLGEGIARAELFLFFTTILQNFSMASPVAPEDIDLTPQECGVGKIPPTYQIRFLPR
Sequence of CYP2C9 (P11712 whole entry): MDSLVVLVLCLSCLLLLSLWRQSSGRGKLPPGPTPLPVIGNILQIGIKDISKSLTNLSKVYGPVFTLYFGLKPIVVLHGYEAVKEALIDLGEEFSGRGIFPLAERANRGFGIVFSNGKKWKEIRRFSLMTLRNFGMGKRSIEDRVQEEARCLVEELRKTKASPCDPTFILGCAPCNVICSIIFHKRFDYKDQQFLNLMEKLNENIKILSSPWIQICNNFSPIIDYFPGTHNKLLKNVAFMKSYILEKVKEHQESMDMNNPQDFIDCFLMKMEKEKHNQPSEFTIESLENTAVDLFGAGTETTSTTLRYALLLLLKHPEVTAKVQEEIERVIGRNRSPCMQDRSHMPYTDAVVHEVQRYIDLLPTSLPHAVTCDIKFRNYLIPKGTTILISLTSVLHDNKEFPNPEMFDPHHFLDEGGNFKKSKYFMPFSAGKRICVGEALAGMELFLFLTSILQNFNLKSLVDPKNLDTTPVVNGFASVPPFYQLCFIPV
Sequence of CYP2E1 (P05181 whole entry): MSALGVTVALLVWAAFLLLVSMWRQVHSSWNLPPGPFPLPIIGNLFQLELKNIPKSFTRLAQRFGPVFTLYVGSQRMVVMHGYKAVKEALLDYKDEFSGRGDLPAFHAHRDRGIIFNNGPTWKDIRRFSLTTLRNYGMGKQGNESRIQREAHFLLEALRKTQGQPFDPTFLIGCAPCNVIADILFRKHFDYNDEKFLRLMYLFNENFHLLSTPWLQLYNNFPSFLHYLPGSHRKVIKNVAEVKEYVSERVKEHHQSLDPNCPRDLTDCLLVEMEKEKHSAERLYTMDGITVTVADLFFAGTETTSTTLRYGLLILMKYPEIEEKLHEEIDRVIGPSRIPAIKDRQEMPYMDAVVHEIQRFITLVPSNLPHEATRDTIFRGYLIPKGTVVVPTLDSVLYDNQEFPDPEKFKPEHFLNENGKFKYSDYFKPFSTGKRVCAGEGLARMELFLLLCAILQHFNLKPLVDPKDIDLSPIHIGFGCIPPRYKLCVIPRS
Sequence of CYP2D6 (P10635 whole entry): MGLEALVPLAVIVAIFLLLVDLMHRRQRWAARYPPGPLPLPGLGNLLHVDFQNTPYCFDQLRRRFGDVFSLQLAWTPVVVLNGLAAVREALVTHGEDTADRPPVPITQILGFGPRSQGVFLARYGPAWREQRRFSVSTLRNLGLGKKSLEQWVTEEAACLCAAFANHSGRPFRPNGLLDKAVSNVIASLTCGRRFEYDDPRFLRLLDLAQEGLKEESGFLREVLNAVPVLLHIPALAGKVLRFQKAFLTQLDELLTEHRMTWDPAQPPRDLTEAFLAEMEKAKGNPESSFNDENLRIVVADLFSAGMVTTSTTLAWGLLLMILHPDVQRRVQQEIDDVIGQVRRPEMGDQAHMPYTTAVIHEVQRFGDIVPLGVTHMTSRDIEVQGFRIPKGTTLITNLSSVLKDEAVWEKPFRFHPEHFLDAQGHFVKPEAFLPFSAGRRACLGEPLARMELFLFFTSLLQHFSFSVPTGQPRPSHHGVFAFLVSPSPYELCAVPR
Sequence of CYP2A6 (P11509 whole entry): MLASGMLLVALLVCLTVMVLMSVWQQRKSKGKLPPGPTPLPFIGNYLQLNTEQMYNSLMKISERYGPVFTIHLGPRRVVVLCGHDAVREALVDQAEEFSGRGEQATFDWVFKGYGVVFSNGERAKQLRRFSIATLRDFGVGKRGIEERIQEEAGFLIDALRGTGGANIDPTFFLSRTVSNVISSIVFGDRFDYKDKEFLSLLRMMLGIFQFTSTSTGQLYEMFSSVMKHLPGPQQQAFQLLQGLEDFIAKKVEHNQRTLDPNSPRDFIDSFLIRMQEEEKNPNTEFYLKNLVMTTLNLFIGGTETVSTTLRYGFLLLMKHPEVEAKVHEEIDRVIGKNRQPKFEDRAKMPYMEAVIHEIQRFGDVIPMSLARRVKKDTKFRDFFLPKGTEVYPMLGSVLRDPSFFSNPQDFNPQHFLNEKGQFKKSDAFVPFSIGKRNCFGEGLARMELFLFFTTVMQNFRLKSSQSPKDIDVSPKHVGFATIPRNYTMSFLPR
Sequence of CYP1A2 (P05177 whole entry): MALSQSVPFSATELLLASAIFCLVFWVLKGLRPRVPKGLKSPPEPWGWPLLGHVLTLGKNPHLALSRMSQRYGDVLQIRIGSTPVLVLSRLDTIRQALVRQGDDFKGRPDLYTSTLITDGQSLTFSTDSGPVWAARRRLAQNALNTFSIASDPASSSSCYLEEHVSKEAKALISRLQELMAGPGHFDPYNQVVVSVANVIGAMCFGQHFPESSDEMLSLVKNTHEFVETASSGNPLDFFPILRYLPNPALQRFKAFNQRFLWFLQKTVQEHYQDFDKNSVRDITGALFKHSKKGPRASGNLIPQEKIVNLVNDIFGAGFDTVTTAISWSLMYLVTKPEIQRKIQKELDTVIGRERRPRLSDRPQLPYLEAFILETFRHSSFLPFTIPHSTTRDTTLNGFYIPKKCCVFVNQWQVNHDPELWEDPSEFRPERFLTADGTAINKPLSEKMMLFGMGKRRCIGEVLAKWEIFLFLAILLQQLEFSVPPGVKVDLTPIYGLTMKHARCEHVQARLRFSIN

With `COc1ccc(F)c(-n2ncc3c2COC[C@H]3NC(=O)c2ncn3c2CCCC3)c1Cl` (single isomer, unassigned) [Ex-9] as the compound, how does the IC50 (CYP1A2) read?
The IC50 was > 30 µM.

What about the IC50 (CYP3A4; IC50 CYP3A4-M, substrate Midozolam) of the same compound?
The IC50 was > 30 µM.

And the IC50 (CYP3A4; IC50 CYP3A4-T, substrate Testosterone)?
The IC50 was > 30 µM.

What about the IC50 (CYP2C9) of the same compound?
Its IC50 is > 30 µM.

What about the IC50 (CYP2C19) of the same compound?
The IC50 was > 30 µM.

What about the IC50 (CYP2E1) of the same compound?
The IC50 was > 30 µM.

What about the IC50 (CYP2B6) of the same compound?
Its IC50 is > 30 µM.

And the IC50 (CYP2D6)?
The IC50 was > 30 µM.

What about the IC50 (CYP2A6) of the same compound?
The IC50 was > 30 µM.

What about the IC50 (CYP2C8) of the same compound?
Its IC50 is > 30 µM.

What about the HLM % remaining (in vitro; % remaining at 60 min, 1 μM) of the same compound?
The HLM % remaining was 100%.

And the half-life at 1 μM (in vitro; both, human, pooled liver microsomes)?
Its half-life at 1 μM is > 6.08 h.

And the CC50 [1]?
Its CC50 is 3.65 ± 0.1 µM.

— patent US20250388602A1 (Genase Therapeutics B.V., priority 2022, published 2025)
